# Counter-ions that a name gives are not always drawn.
# Key:
# [1] = test system: thoracal aorta isolated from rabbit; assay: Vasorelaxant effect in vitro on isolated thoracal aorta; settings: Oryctolagus cuniculus
# Text: The vasorelaxant effect of the compounds was investigated in vitro on the thoracal aorta isolated from rabbit [Am. J. Physiol. 257, 1327-1333 (1989)].
# sciatic and tibial nerve = assay: Motor and sensory impulse conduction rate of nerves in STZ-induced diabetic rats (diabetic angiopathy complications); type: in vivo, male Cr:Wistar rats; settings: for MCR correction (%): motor conduction rate; for SCR correction (%): sensory conduction rate
# Procedure: Furthermore, the effect of the compounds of the invention in the treatment of complications associated with the diabetic angiopathy was studied. The in vivo action was measured on rats, by the change of rate of the impulse conduction in an STZ-induced diabetic state as follows.
# The electrophysiological measurements were carried out on anaesthetized male Cr:Wistar rats at the end of a one-month period of treatment with 20 mg/kg administered orally (p.o.). The sciatic or tibial nerve, respectively, was excited by needle electrodes stitched near the nerve on the lower extremity and the electromyographic (EMG) responses of the plantar muscle were registered. Five EMG-s each were averaged and the results were stored in a computer. The latency periods of the motor and sensory components were measured. The rates of impulse conduction were calculated from the ratio of the distance between two sites of excitation to the differences of latency.
# [2] = test system: Reperfusion-induced arrhythmia; assay: Reperfusion-induced arrhythmia (ventricular tachycardia and fibrillation, survival) in anaesthetized rats; type: in vivo, rat; settings: 1 mg/kg i.v., 5 minutes before compressing the left-sided descending coronary artery; first 3 minutes of reperfusion
# Procedure: The Reperfusion-induced arrhythmia [ventricular tachycardia (VI) and ventricular fibrillation (VF)] was studied on anaesthetized rats. Myocardial ischemia was elicited by compressing the left-sided descending coronary artery for 5 minutes and after the ceasing thereof, by a 10-minute reperfusion of the heart. ECG was continuously monitored, and the change of the mean duration of VT and VF under effect of the test compounds, as well as the survival, were measured in the first 3 minutes of reperfusion. The test compounds were administered in an intravenous (i.v.) dose of 1 mg/kg by 5 minutes before compressing the left-sided descending coronary artery.
# [3] = 20 mg/kg p.o., one-month treatment
EC50 [1] [µM],SMILES,also measured
13,"ClC(=NOCCN1CCCCC1)c1cccnc1 [Example 6, O-(2-piperidinoethyl)-3-pyridinehydroximoyl chloride hydrochloride]",
83,"CC(C)COCC(CN(Cc1ccccc1)c1ccccc1)N1CCCC1 (stereo not shown) [Ref, Bepridil, reference compound]",
15,"FC(F)(F)c1cccc(C(Cl)=NOCCCN2CCCCC2)c1 [Example 8, N-[3-(1-piperidinyl)propoxy]-3'-(trifluoromethyl)benzimidoylchloride hydrochloride]",
76,"CN1CCN(CCCON=C(Cl)c2cccnc2)CC1 [Example 9, N-[3-(4-methylpiperazin-1-yl)-1-propoxy]-3-pyridinecarboximidoyl chloride trihydrochloride]",
,"N=C(N)NN [Reference drug, aminoguanidine, reference compound]",MCR correction (%) (sciatic and tibial nerve; 50 mg/kg of aminoguanidine): 40%; SCR correction (%) (sciatic and tibial nerve; 50 mg/kg of aminoguanidine): 45%
24,"ClC(=NOCCCN1CCOCC1)c1cccnc1 [Example 5, O-(3-morpholinopropyl)-3-pyridinehydroximoyl chloride dihydrochloride]",
82,"CCN(CC)CCCON=C(Cl)c1cccnc1 [Example 4, O-(3-diethylaminopropyl)-3-pyridinehydroximoyl chloride hydrochloride]",

SMILES,EC50 [1] [µM],also measured
"ClC(=NOCCCN1CCCCC1)c1cccnc1 [Example 2, N-(3-piperidinopropoxy)-3-pyridinecarboximodyl chloride dihydrochloride]",27,survival of experimental animals [2]: 100%; MCR correction (%) (sciatic and tibial nerve; [3]): 100%; SCR correction (%) (sciatic and tibial nerve; [3]): 100%
"Cl.O=[N+]([O-])c1cccc(C(Cl)=NOCCCN2CCCCC2)c1 [Example 7, O-(3-piperidinopropyl)-3-nitro-benzhydroximoyl chloride hydrochloride]",6,survival of experimental animals [2]: 100%; MCR correction (%) (sciatic and tibial nerve; [3]): 48%; SCR correction (%) (sciatic and tibial nerve; [3]): 64%

# Reference: patent publication US5919796A, “Hydroximic acid derivatives, pharmaceutical compositions containing them, and processes for preparing the same” (BIOREX Kutato es Fejleszto Rt., priority 1994, dated 1999)
